Measurements published in PMC9947975, “Design, Synthesis, and Biological Evaluation Studies of Novel Naphthalene-Chalcone Hybrids As Antimicrobial, Anticandidal, Anticancer, and VEGFR-2 Inhibitors” (ACS Omega, 2023).
In brackets after ≈: the same amount, converted by molar mass. Several values for one entry are separate records, joined by “and”; a condition that tells them apart may be missing. Equal values may be shown once.

Experiments:
B. subtilis (ATCC 6051) = test: Antibacterial activity, MIC50 by resazurin fluorometric measurement; assay type: cell-based; conditions: Bacillus subtilis, ATCC6051; means of triplicate assays
Method: (§1) Obtained compounds (2a–2j) were evaluated for antibacterial activity against Escherichia coli (E. coli) (ATCC 25922), Pseudomonas aeruginosa (P. aeruginosa) (ATCC 27853), […] (E. faecalis) (ATCC 2942), Bacillus subtilis (B. subtilis) (ATCC 6051), Staphylococcus aureus (S. aureus) (ATCC 29213), and Staphylococcus epidermidis (S. epidermidis) (ATCC 12228). MIC50 values were determined via fluorometric measurements, using resazurin solution.[13] Azithromycin was used as a standard drug in the antibacterial activity test.
(§2) The antimicrobial activity of obtained derivatives (2a–2j) was screened on six bacterial and three fungal strains according to the standard procedure of CLSI[20] as described in the previous study.[21] The antibacterial activities of the obtained compounds were screened against B. subtilis (ATCC 6051), E. coli (ATCC 25922), E. faecalis (ATCC 2942), P. aeruginosa (ATCC 27853), S. aureus (ATCC 29213), and S. epidermidis (ATCC 12228). The obtained compounds were evaluated for anticandidal activity against C. albicans (ATCC 24433), C. krusei (ATCC 6258), and C. parapsilopsis (ATCC 22019). For antibacterial activity, azithromycin was utilized as a reference drug, whereas voriconazole and fluconazole were used for anticandidal activity.

E. coli (ATCC 25922) = test: as above; assay type: cell-based; conditions: Escherichia coli, ATCC25922; means of triplicate assays
Method: as §1, §2

[1] = test system: P. aeruginosa (ATCC 27853); test: as above; assay type: cell-based; conditions: Pseudomonas aeruginosa, ATCC27853; means of triplicate assays
Method: as §1, §2

E. faecalis (ATCC 2942) = test: as above; assay type: cell-based, Enterococcus faecalis
Method: as §1, §2

S. aureus (ATCC 29213) = test: as above; assay type: cell-based, Staphylococcus aureus
Method: as §1, §2

[2] = test system: S. epidermidis (ATCC 12228); test: as above; assay type: cell-based, Staphylococcus epidermidis
Method: as §1, §2

C. albicans (ATCC 24433) = test: Anticandidal activity, MIC50 by resazurin fluorometric measurement; assay type: cell-based, Candida albicans
Method: (§3) Obtained compounds (2a–2j) were evaluated for anticandidal activity against Candida albicans (C. albicans) (ATCC 24433), Candida krusei (C. krusei) (ATCC 6258), and Candida parapsilopsis (C. parapsilopsis) (ATCC 22019). MIC50 values were determined via fluorometric measurements, using resazurin solution.[13] Voriconazole and fluconazole were used as a standard drug in the anticandidal activity test. […] In general, it is seen that the 2-methoxyethyl substituent increases the anticandidal activity.
as §2

C. krusei (ATCC 6258) = test: as above; assay type: cell-based, Candida krusei
Method: as §3, §2

[3] = test system: C. parapsilopsis (ATCC 22019); test: as above; assay type: cell-based, Candida parapsilopsis; conditions: Candida, ATCC22019; means of triplicate assays
Method: as §3, §2

A549 cell line [4] = test: MTT cytotoxicity test; assay type: cell-based; conditions: for IC50: MTT, 24-h treatment, means of quartet assays ± SEM
Method: (§4) The MTT test was performed using 3 different cell lines for calculated IC50 values of obtained compounds. […] For this purpose, the cytotoxic effects of the compounds against the healthy mouse fibroblast cell (NIH3T3) were investigated.
(§5) The 3-(4,5-dimethylthiazol-2-yl)-2,5-diphenyltetrazolium salt reduction method, or MTT assay, is used to measure the metabolic activity of live cells. […] Doxorubicin is used as a therapeutic drug. MTT assays were carried out as previously explained.[19]

HepG2 cell line = test: MTT cytotoxicity test; assay type: cell-based; conditions: Homo sapiens, 24-h treatment, means of quartet assays ± SEM
Method: as §4, §5

[5] = test system: healthy mouse fibroblast cell (NIH3T3); test: MTT cytotoxicity test on healthy cells; assay type: cell-based; conditions: 24-h treatment, means of quartet assays ± SEM
Method: as §4, §5

carcinogenic cell lines [6] = test: Flow cytometric analysis of apoptosis and necrosis (Apoptosis, Necrosis and Healthy Cell Quantitation Kit Plus); assay type: cell-based; conditions: IC50 concentration, 24-h incubation
Source text: The flow cytometer was used to calculate the percentages of apoptotic and necrotic cells in four different quadrants, which are denoted by the letters “UL, UR, LL, LR” (Upper Left, Upper Right, Lower Left, Lower Right). The four distinct quadrants in the diagram represent the following areas, respectively: Apoptotic or early apoptotic cells, LR: CF488A+/(EthD-III)-; necrotic or late apoptotic cells, […]: CF488A+/(EthD-III)+; intact cells, LL: CF488A/(EthD-III); and dead or necrotic cells, UR: CF488A+/(EthD-III)+. The IC50 concentration of each substance was used in administration.
Death pathway of the carcinogenic cell lines was detected by Apoptosis, Necrosis and Healthy Cell Quantitation Kit Plus (Cat: 30066, Biotium, Hayward, CA, USA)[22] as reported in the manufacturer’s instruction. The IC50 values for doxorubicin and compound 2j were applied. Cells were collected by centrifugation at 1200 rpm for 5 min following a 24-h incubation period. It was washed 2 times with PBS, centrifuged and turned into pellets. One ×10^6 cells/mL of annexin were suspended in V-FITC binding buffer. Ethidium iodide ([…]), Hoestch 1 mL, and annexin V-FITC ([…]) were added to stain cells and using the CytoFLEX Flow Cytometer (Beckman Coulter Life Sciences, USA) and CytExpert for CytoFLEX Acquisition and Analysis Software Version 2.2.0.97 instrument. Fluorescence measurements were made using a flow cytometer in accordance with the instrument procedure.

A549 cell line [7] = test: Analysis of mitochondrial membrane potential (MMP) by flow cytometry, JC-1 dye; assay type: cell-based; conditions: A549, IC50 concentration, 24-h incubation
Method: After a 24-h incubation period, mitochondrial membrane potential was measured with JC-1 dye.
The BD Mitoscreen Mitochondrial Membrane Potential Detection JC-1 Kit (available from ref ([23])) was used for the MMP test. First, A549 cells were seeded in 25 mL flasks and incubated for 24 h in a 5% CO2 incubator. […] At the end of this period, cells were collected and centrifuged in accordance with the kit contents. After the upper part was removed, JC-1 dye was added and incubated at 37 °C for 10–15 min. At the end of the period, it was washed 2 times with washing solution and reading was done with the appropriate procedure using the CytoFLEX Flow Cytometer (Beckman Coulter Life Sciences, USA) and CytExpert for CytoFLEX Acquisition and Analysis Software Version 2.2.0.97.

VEGFR-2 enzyme = molecular target: T1, VEGFR-2 enzyme (Homo sapiens, UniProt P35968); test: VEGFR-2 inhibition assay (VEGFR-2 Kinase Assay Kit); assay type: biochemical; conditions: serial 11 dilutions, 1000 μM–0.01 μM
T1 construct: purchased
T1 sequence (P35968 20-1356): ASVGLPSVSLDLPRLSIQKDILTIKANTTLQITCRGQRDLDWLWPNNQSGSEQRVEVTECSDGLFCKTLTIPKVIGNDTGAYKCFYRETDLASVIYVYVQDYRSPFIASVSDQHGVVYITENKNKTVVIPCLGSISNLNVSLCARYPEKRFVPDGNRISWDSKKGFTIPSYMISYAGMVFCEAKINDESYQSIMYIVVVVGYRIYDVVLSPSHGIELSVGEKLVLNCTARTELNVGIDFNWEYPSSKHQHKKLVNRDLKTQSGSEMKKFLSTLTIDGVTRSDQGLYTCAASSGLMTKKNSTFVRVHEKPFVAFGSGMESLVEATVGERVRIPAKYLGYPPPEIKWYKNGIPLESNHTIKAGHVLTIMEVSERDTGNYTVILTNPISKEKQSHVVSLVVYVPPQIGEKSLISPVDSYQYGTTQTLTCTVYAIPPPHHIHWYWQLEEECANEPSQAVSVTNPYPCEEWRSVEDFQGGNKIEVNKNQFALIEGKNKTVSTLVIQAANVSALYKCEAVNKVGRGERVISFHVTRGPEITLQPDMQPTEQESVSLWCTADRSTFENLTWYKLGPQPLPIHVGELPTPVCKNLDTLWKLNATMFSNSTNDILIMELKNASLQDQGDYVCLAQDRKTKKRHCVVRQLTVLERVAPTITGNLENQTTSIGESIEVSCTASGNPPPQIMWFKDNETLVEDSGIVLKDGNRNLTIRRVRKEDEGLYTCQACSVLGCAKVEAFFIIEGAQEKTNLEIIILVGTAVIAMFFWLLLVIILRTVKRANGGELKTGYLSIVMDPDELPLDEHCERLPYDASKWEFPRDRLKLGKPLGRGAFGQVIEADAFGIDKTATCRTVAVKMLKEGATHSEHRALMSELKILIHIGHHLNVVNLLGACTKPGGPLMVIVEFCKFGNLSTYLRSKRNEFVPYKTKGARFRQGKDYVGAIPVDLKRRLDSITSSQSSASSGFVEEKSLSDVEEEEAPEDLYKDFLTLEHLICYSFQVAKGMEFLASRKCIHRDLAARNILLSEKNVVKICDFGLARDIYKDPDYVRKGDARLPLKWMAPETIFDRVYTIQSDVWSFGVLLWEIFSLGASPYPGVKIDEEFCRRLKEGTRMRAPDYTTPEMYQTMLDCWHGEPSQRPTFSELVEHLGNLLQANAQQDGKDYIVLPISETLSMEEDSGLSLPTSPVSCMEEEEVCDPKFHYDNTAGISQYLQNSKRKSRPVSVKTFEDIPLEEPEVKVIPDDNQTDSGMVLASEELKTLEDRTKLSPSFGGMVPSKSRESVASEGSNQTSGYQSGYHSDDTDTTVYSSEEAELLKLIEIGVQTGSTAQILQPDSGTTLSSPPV
Method: The VEGFR-2 Kinase Assay Kit (Available from ref ([15])) was used for the VEGFR-2 inhibition. The experiment was performed in vitro according to the kit procedure. Serial 11 dilutions of compound 2j were prepared at concentrations of 1000 μM–0.01 μM. The IC50 value for compound 2j was calculated using the kit procedure.
The VEGFR-2 Kinase Assay Kit (available from ref ([15])) was used for the VEGFR-2 inhibition. The experiment was performed in vitro according to the kit procedure.

carcinogenic cell lines [8] = test: Flow cytometric analysis of apoptosis and necrosis (Apoptosis, Necrosis and Healthy Cell Quantitation Kit Plus); assay type: cell-based; conditions: IC50 concentration, 24-h incubation; remark: listed apart in the source

`COCCN1CCN(c2ccc(C(=O)C=Cc3ccc4ccccc4c3)cc2)CC1` [2j, 1-(4-(4-(2-Methoxyethyl)piperazin-1-yl)phenyl)-3-(naphthalen-2-yl)prop-2-en-1-one] gave an MIC50 (B. subtilis (ATCC 6051)) of over 100 µg/mL, an MIC50 (E. coli (ATCC 25922)) of over 100 µg/mL and an MIC50 [1] of 62.5 µg/mL (≈ 156 µM). The MIC50 (E. faecalis (ATCC 2942); Enterococcus faecalis, ATCC2942, means of triplicate assays) was 15.6 µg/mL (≈ 38.9 µM), the “MIC50 E. faecalis” value (E. faecalis (ATCC 2942); means of triplicate assays) was 15.7 µg/mL (≈ 39.2 µM) and the MIC50 (S. aureus (ATCC 29213); Staphylococcus aureus, ATCC29213, means of triplicate assays) was 31.2 µg/mL (≈ 78 µM). For the same molecule, the “MIC50 S. aureus” value (S. aureus (ATCC 29213); means of triplicate assays) was 31.3 µg/mL (≈ 78.1 µM), the MIC50 ([2]; Staphylococcus epidermidis, ATCC12228, means of triplicate assays, read-out: MIC50 S. epidermis) was 31.2 µg/mL (≈ 78 µM) and the “MIC50 S. epidermis” value ([2]; means of triplicate assays) was 31.3 µg/mL (≈ 78.1 µM). The MIC50 (C. albicans (ATCC 24433); Candida albicans, ATCC24433, means of triplicate assays) was 15.6 µg/mL (≈ 39 µM), the “MIC50 C. albicans” value (C. albicans (ATCC 24433); means of triplicate assays) was 15.6 µg/mL (≈ 38.9 µM) and the MIC50 (C. krusei (ATCC 6258); Pichia kudriavzevii, ATCC6258, means of triplicate assays) was 15.6 µg/mL (≈ 39 µM). For the same molecule, the “MIC50 C. krusei” value (C. krusei (ATCC 6258); means of triplicate assays) was 15.6 µg/mL (≈ 38.9 µM), the MIC50 [3] was over 100 µg/mL and the IC50 (A549 cell line [4]; Homo sapiens, A549, 24 h) was under 10 µM. The IC50 (A549 cell line [4]) was 7.8 µM and 7.83 µM, the “selectivity index (IC50 value vs healthy cell/IC50 value vs cancer cell)” value (A549 cell line [4]; NIH3T3 vs A549 cell line) was 1.990 and the IC50 (HepG2 cell line) was 38.9 ± 1.34 µM. For the same molecule, the IC50 [5] was 15.6 ± 0.75 µM, the “early apoptosis (Q1-LR)” value (carcinogenic cell lines [6]) was 3.97% and the “intact cells (Q1-LL)” value (carcinogenic cell lines [6]) was 67.71%. For the same molecule, the “necrosis (Q1-UL)” value (carcinogenic cell lines [6]) was 18.06% and 18.1%, the “rate of apoptosis (early + late apoptosis)” value (carcinogenic cell lines [6]) was 14.230% and 14.2% and the “mitochondrial membrane potential (P3)” value (A549 cell line [7]) was 58.870%. The IC50 (VEGFR-2 enzyme) was 0.098 ± 0.005 µM and the “late apoptosis (Q1-UR)” value (carcinogenic cell lines [8]) was 10.26% and 10.3%.

With `COc1cccc2c1C(=O)c1c(O)c3c(c(O)c1C2=O)C[C@@](O)(C(=O)CO)C[C@@H]3O[C@H]1C[C@H](N)[C@H](O)[C@H](C)O1` [SD4, Doxorubicin, reference compound] the IC50 (A549 cell line [4]; Homo sapiens, A549, 24 h) was 2.97 ± 0.16 µM, the IC50 (HepG2 cell line) was 9.47 ± 1.49 µM and the IC50 [5] was over 100 µM. For the same molecule, the “early apoptosis (Q1-LR)” value (carcinogenic cell lines [6]) was 8.55%, the “intact cells (Q1-LL)” value (carcinogenic cell lines [6]) was 80.85% and the “necrosis (Q1-UL)” value (carcinogenic cell lines [6]) was 1.76%. The “rate of apoptosis (early + late apoptosis)” value (carcinogenic cell lines [6]) was 17.4%, the “mitochondrial membrane potential (P3)” value (A549 cell line [7]) was 30.270% and the “late apoptosis (Q1-UR)” value (carcinogenic cell lines [8]) was 8.84%.
